Holding throughout (assay): growth of human tumour cells (NCI), 48 h
Test [1] deals with CAKI-1 renal.
The test system of test [2] is HCC-2998 colon.
Test [3] concerns HCT-116 colon.
Test [4] concerns HL-60(TB) leukemia.
Test [5] concerns HOP-62 NSCLC.
Test [6] relates to HOP-92 NSCLC.
For test [7], the system named is MDA-MB-231 breast.
Test [8] concerns MOLT-4 leukemia.
The subject of test [9] is PC-3 prostate.
For test [10], the system named is RXF 393 renal.

Where “and” joins values, the source holds several entries; their conditions need not be identical. Identical values can stand only once.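 Method: 48-hour compound exposure of cells in 96-well plates, five concentrations, linear interpolation of endpoints. GI50 = concentration required for 50% inhibition of growth. At the TGI there is no net growth.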

On to `COc1cc(C(=O)c2cocc2C(=O)c2ccc3c(c2)OCO3)cc(OC)c1OC`, for which the TGI came out at 35.7 µM in test [1]; 16.9 µM in test [2]; 24.4 µM in test [3]; 2.06 µM in [4]; 31.3 µM in test [5]; 35.4 µM in [6]. For the same compound, the TGI in [7] is 48.5 µM; in test [8] it was greater than 74.7 µM; in test [9], greater than 35.9 µM; in test [10] it was 4.43 µM.
For `NC(=O)NN=C1Cc2ccccc2C1`, the TGI in test [1], in test [2], in test [3], in test [4], in test [5] and in test [6] was greater than 100 µM each time. Moreover, the TGI in test [7], in [8], in test [9] and in [10] was greater than 100 µM throughout.
With `CC1(C)CCC[C@]2(C)c3ccccc3C(=O)CC12` (stereo partly drawn), the GI50 was 83.1 µM in [1]; 20.8 µM in [2]; 35 µM in test [3]; 40.5 µM in test [4]; greater than 100 µM in test [5]; 60.8 µM in test [6]. The GI50 in test [7] was 30.8 µM; in [8], 75.8 µM; in [9] it was 42 µM; in test [10], 82.1 µM. Also, the TGI was greater than 100 µM in test [1]; 81.4 µM in [2]; greater than 100 µM in [3]; greater than 100 µM in [4]; greater than 100 µM in test [5]; greater than 100 µM in [6]. In addition, the TGI in test [7], in test [8], in test [9] and in test [10] was greater than 100 µM throughout.
Regarding `CCOC(=O)/C=C/c1cccc(F)c1`, the TGI in test [1], in test [2], in test [3], in test [4], in test [5] and in test [6] was greater than 100 µM in each case. Also, the TGI in [7], in test [8], in test [9] and in test [10] was greater than 100 µM each time.
As for `O=C1N=C(Nc2nc(-c3csc(NC4=NC(=O)/C(=C\c5ccccc5)S4)n3)cs2)S/C1=C/c1ccccc1`, the GI50 in [1] is 29.2 µM; in test [2], 8.2 µM; in [3], 3.5 µM; in [4], 14.3 µM; in test [5], 7.97 µM; in test [6], 4.37 µM. Also, the GI50 in test [7] was 4.78 µM; in [8], 3.02 µM; in [9], 8.98 µM; in test [10], 18.5 µM. For the same compound, the TGI was greater than 50 µM in test [1]; 45.5 µM in test [2]; 29 µM in test [3]; 36.8 µM in test [4]; 46.3 µM in test [5]; 20.5 µM in [6]. For the same compound, the TGI in test [7] was 18.8 µM; in test [8] it was greater than 50 µM; in test [9], 42.7 µM; in [10] it was greater than 50 µM.
With `CS(=O)(=O)N(c1cc(-c2ccc3ncnc(Nc4ccc(F)c(Cl)c4)c3c2)cnc1Cl)S(C)(=O)=O`, the GI50 is 0.553 µM in test [1]; 1.58 µM in test [2]; 1.68 µM in [3]; 0.49 µM in [4]; 0.957 µM in test [5]; 0.191 µM in test [6]. In addition, the GI50 in test [7] is 1.75 µM; in test [8] it was 1.18 µM; in test [9], 1.1 µM; in test [10] it was 0.711 µM. The TGI in [1] was 3.98 µM; in test [2], 8.43 µM; in test [3] it was 6.7 µM; in test [4], 5.35 µM; in test [5] it was 14.7 µM; in [6], 1.73 µM. In addition, the TGI in [7] stood at 9.65 µM; in test [8] it was 7.74 µM; in test [9], 7.9 µM; in test [10] it was 3.4 µM.
In the case of `COc1ccc2nc3cc(Cl)ccc3c(Nc3cc(CN4CCCC4)c(O)c(CN4CCCC4)c3)c2n1`, the GI50 in test [1] was 2.37 µM; in test [2], 1.25 µM; in test [3] it was 1.04 µM; in test [4] it was 2.07 µM; in test [5] it was 1.38 µM; in [6] it was 1.04 µM. In addition, the GI50 was 1.86 µM in test [7], 0.41 µM in [8], 1.53 µM in [9] and 1.25 µM in test [10]. For the same compound, the TGI worked out at 8.44 µM in test [1]; 2.91 µM in [2]; 5.83 µM in test [3]; 4.78 µM in test [4]; 4.91 µM in test [5]; 3.74 µM in test [6]. The TGI in test [7] was 8.17 µM; in [8], 2.51 µM; in test [9], 6.52 µM; in test [10], 3.05 µM.
In the case of `COc1ccc(-c2cc(=O)c3c(O)c(OC)c(OC)c(OC)c3o2)cc1`, the TGI in [1] is greater than 100 µM; in [2], greater than 20.4 µM; in [3], greater than 100 µM; in test [4] it was greater than 100 µM; in test [5], greater than 100 µM; in [6], greater than 82.8 µM. The TGI in test [7] is greater than 72 µM; in test [8], greater than 100 µM; in test [9] it was greater than 100 µM; in test [10] it was 62.2 µM.
As for `CCC1=C(CC2NCCc3ccccc32)CC2c3cc(OC)c(OC)cc3CCN2C1` (stereo not drawn), the GI50 was 3.28 µM in test [1]; 3.9 µM in [2]; 2.86 µM in test [3]; 2.89 µM in test [4]; 3.6 µM in test [5]; 1.23 µM in test [6]. For the same compound, the GI50 in [7] was 3.4 µM; in test [8] it was 3.39 µM; in [9] it was 3.48 µM; in test [10], 2.67 µM. In addition, the TGI in test [1] was 15.2 µM; in [2], 15.5 µM and 10.5 µM; in test [3] it was 11.6 µM and 2.94 µM; in [4], 10.7 µM and 5.01 µM; in [5], 17.1 µM and 4.65 µM; in test [6] it was 9.48 µM and 16.6 µM. Also, the TGI in [7] was 14.4 µM and 1.75 µM; in [8] it was 13.8 µM and 2.2 µM; in [10] it was 13.5 µM and 5.3 µM.
For `COc1cc(CNc2oc(-c3ccccc3)c(-c3ccccc3)c2C#N)cc(CN2CCN(C)CC2)c1O`, the GI50 in test [1] was 1.68 µM; in [2] it was 1.79 µM; in [3], 1.55 µM; in [4] it was 1.79 µM; in test [5] it was 1.92 µM; in test [6] it was 2.34 µM. In addition, the GI50 is 2.01 µM in test [7], 1.96 µM in [8], 1.87 µM in test [9] and 1.41 µM in test [10]. Besides, the TGI was 3.17 µM in test [1]; 3.36 µM in test [2]; 4.17 µM in [3]; 4.19 µM in test [4]; 4.21 µM in test [5]; 10.2 µM in [6]. The TGI in test [7] worked out at 3.93 µM; in test [8], 4.24 µM; in test [9] it was 4.09 µM; in [10], 2.95 µM.
Turning to `O=C(Nc1cccc(C(F)(F)F)c1)Oc1ccc(Cl)c2cccnc12`, the GI50 in [1] is 2.03 µM; in test [2], 3.51 µM; in test [3] it was 0.615 µM; in test [4], 0.776 µM; in test [5], 2.99 µM; in [6], 0.462 µM. Moreover, the GI50 in test [7] is 2.11 µM; in [8], 0.86 µM; in [9] it was 0.607 µM; in test [10] it was 1.2 µM. In addition, the TGI came to 4.79 µM in test [1]; 12.8 µM in test [2]; 8.03 µM in [3]; 11 µM in [5]; 4.02 µM in test [6]; 6.15 µM in test [7]. Further, the TGI in test [8] was 22.8 µM; in [9], 14.2 µM; in test [10], 5.49 µM.
For the compound `COc1cc2nccc(Oc3ccc(NC(=O)c4cn(C(C)C)c(=O)n(-c5ccc(F)cc5)c4=O)cc3F)c2cc1OC`, the GI50 is 1.91 µM in test [1]; greater than 100 µM in test [2]; 5.4 µM in [3]; greater than 100 µM in [4]; greater than 69.4 µM in test [5]; 0.347 µM in [6]. Also, the GI50 is 2.61 µM in [7], greater than 100 µM in [8], 6.28 µM in test [9] and greater than 21.1 µM in test [10]. The TGI in [1] is 6 µM; in test [2] it was greater than 100 µM; in test [3] it was greater than 100 µM; in [4] it was greater than 100 µM; in [5] it was greater than 100 µM; in test [6] it was greater than 100 µM. Further, the TGI in test [7] was 39.5 µM; in test [8], greater than 100 µM; in test [9] it was greater than 100 µM; in test [10], greater than 100 µM.
Regarding `N#Cc1cccc(C2C3=C(COC3=O)N(CCO)c3cc4c(cc32)OCO4)c1` (stereo not drawn), the GI50 is 1.32 µM in test [1]; 4.6 µM in [2]; 1.43 µM in test [3]; 1.32 µM in [4]; 2.1 µM in test [5]; 2.66 µM in test [6]. In addition, the GI50 is 2.42 µM in [7], 3.64 µM in [8], 1.62 µM in test [9] and 1.26 µM in test [10]. Also, the TGI was greater than 50 µM in [1]; greater than 50 µM in test [2]; greater than 50 µM in [3]; 4.36 µM in [4]; greater than 50 µM in [5]; greater than 50 µM in [6]. In addition, the TGI in test [7] was greater than 50 µM; in [8], greater than 50 µM; in [9], greater than 50 µM; in test [10], 4.54 µM.
On to `CCN(Cc1c(F)cccc1Cl)c1ccc(CO)c(Cl)c1`, for which the GI50 is 1.2 µM in [1]; 3.27 µM in test [2]; less than 0.0172 µM in [3]; 13 µM in test [4]; 0.174 µM in [5]; 0.116 µM in [6]. Besides, the GI50 is 13.3 µM in [7], 17.1 µM in test [8], 12 µM in [9] and 6.31 µM in test [10]. Besides, the TGI in [1] is 17.4 µM; in test [2], 18.3 µM; in [3] it was 12.1 µM; in [4], 37.3 µM; in test [5], 18.3 µM; in test [6], 0.933 µM. Besides, the TGI turned out to be 27.1 µM in test [7], 39.8 µM in test [8], 25.1 µM in test [9] and 27 µM in test [10].
On to `CC/C(=C/c1ccc(OC)cc1OC)[N+](=O)[O-]`, for which the GI50 in test [1] is 2.24 µM; in test [2], 4.32 µM; in test [3], 1.65 µM; in test [4], 2.6 µM; in test [5], 2.38 µM; in [6], 4.27 µM. For the same compound, the GI50 in test [7] is 3.08 µM; in [8], 3.73 µM; in test [9], 3.84 µM; in test [10] it was 1.88 µM. Further, the TGI in test [1] was 6.55 µM; in test [2], 15.8 µM; in test [3], 3.23 µM; in test [4], 7.93 µM; in test [5] it was 7.14 µM; in [6] it was 14.3 µM. Further, the TGI in test [7] amounted to 8.96 µM; in test [8], 35.6 µM; in test [9], 13.1 µM; in [10], 3.57 µM.
Regarding `CC(C)(C)OC(=O)Nc1ccc2c(c1)C(NC(=O)Nc1cccc(C#N)c1)CC(C)(C)O2` (stereo not drawn), the GI50 was 2.49 µM in test [1]; 4.93 µM in [2]; 1.24 µM in [3]; 2.39 µM in [4]; 5 µM in test [5]; 4.06 µM in test [6]. Moreover, the GI50 in test [7] is 4.17 µM; in [8], 1.96 µM; in test [9], 0.785 µM; in test [10], 5.89 µM. The TGI in test [1] was greater than 42.6 µM; in test [2] it was greater than 100 µM; in test [3], greater than 44.6 µM; in test [4], 22.3 µM; in [5], greater than 100 µM; in [6] it was greater than 28.3 µM. For the same compound, the TGI in test [7] was greater than 50.7 µM; in test [8], greater than 64.6 µM; in [9], greater than 35.3 µM; in test [10], 70.2 µM.
